Measured values: ChEMBL document CHEMBL3886713, “Aromatic heterocyclic derivative having TRPV4-inhibiting activity” (2016)

Biological target: Transient receptor potential cation channel subfamily V member 4 (Homo sapiens, UniProt Q9HBA0)
Assay: Inhibition Assay: Test Example 1: (1) The TRPV4 inhibitory activity was measured using CHO-K1 cells stably expressing human TRPV4 (hTRPV4/CHO cells). (2) In the day before the experimental day, frozen cell were thawed and washed with the culture medium (MEM-α, 10% FBS, 2 mmol/L GlutaMax, 50 unit Penicillin, 50 μg/mL Streptomycin). Then cells were suspended in the culture medium. (3) The 384-well plates which hTRPV4/CHO cells were seeded at densities of 4000 cells/well in the culture medium and cultured in a CO2 incubator in the presence of 5% CO2 at 37° C. for overnight was used as assay plates. (4) The assay plate was washed with assay buffer (Hanks, 20 mmol/L HEPES, 2.5 mmol/L probenecid, pH7.4), and the buffer were remained at 20 μL/well. (5) 10 μl of dye loading buffer (9 μmol/L Fluo 4-AM, 0.09% Pluronic F-127/assay buffer) was added to each well, then the assay plate was incubated in a CO2 incubator in the presence of 5% CO2 at 37° C. for one hour. (final 3 μmol/L Fluo4-AM). (6) The assay plate was washed with the assay buffer, and the buffers were remained at 20 μL/well. Then the assay plate was incubated for 10 min at room temperature. (7) Diluted compound solution was dispensed to each well in the compound plate, and mixed with built-in Pipette and Mixer of the Fluorescence analysis system FLIPR TETRA (Molecular devices). (8) After incubation for 5 min, 20 μL of 4α-PDD solution were applied to each well of assay plate and mixed with the FLIPR TETRA. (final 1 Î¼mol/L 4α-PDD). (9) The fluorescent intensity was measured with FLIPR TETRA system for 10 min from the point of time addition the compound solution, at Ex 470-495 nm, Em 515-575 nm wavelength.
Type: cell-based

Chain of Transient receptor potential cation channel subfamily V member 4 (Q9HBA0 whole entry): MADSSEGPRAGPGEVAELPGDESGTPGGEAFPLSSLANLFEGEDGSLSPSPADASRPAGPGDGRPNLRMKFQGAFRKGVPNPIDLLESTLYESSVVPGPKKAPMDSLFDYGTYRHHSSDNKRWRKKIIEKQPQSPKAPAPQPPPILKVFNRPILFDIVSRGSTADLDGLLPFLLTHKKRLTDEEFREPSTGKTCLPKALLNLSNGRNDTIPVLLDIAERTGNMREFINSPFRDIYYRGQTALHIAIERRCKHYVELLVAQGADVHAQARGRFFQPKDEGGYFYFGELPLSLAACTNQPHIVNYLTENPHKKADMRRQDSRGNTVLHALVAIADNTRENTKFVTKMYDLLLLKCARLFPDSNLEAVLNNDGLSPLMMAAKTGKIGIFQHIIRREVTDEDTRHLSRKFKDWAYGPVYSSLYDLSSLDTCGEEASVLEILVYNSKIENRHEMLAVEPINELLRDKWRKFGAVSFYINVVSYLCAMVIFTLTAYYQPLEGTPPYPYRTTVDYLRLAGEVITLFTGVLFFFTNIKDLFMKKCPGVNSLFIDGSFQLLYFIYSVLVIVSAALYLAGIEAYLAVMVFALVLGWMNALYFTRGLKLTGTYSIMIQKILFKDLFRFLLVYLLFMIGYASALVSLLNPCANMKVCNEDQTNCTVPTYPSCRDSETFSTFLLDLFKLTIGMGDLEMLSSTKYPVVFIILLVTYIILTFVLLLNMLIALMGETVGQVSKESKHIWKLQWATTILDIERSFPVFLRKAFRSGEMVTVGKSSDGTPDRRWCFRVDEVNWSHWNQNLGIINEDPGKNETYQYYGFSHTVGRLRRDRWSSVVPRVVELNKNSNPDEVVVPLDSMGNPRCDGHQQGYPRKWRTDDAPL

Row | SMILES | IC50 | Ki
1 | Cc1c(C(=O)Nc2cccc(C(F)(F)F)c2)nc(-c2ccccc2)n1CCCN1CCOCC1 | 0.71 µM | 0.32 µM
2 | Cc1c(S(=O)(=O)NCc2cccc(C(F)(F)F)c2)cc(C(C)(C)C)n1CCCN1CCNCC1 | 8.9 µM | 3.1 µM
3 | CNCCCn1c(C(C)(C)C)cc(S(=O)(=O)NCc2cccc(C(F)(F)F)c2)c1C | 7 µM | 2.4 µM
